Measurements from publication PMC6834076, “Crystal structures of the Bacillus subtilis prophage lytic cassette proteins XepA and YomS” (Acta Crystallographica. Section D, Structural Biology, 2019).

Key:
XlyB = target: T1, XlyB (Bacillus subtilis, UniProt O34391); assay: thermal shift assay (SYPRO Orange); format: binding; settings: (GlcNAc)3 concentration for this protein not stated (16 mM with HEWL)
T1 construct: full coding region, N-terminal His6 tag, vector pJOE5751 (plasmid pHWG1184), E. coli JM109, HisTrap; prophage PBSX gene
T1 sequence (O34391 2-317): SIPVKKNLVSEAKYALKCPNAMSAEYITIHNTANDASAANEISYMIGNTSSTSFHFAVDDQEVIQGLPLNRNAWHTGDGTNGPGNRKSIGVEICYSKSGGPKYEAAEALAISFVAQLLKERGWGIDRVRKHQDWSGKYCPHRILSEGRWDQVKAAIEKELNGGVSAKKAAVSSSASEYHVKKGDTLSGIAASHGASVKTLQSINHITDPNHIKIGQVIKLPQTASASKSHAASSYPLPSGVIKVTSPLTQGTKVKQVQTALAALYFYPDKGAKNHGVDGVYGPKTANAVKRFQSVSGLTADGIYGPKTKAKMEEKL

XlyA = target: T2, XlyA (Bacillus subtilis, UniProt P39800); assay: thermal shift assay (SYPRO Orange); format: binding; settings: (GlcNAc)3 concentration for this protein not stated (16 mM with HEWL)
T2 construct: full coding region, N-terminal His6 tag, vector pJOE5751 (plasmid pHWG1185), E. coli JM109, HisTrap; prophage PBSX gene
T2 sequence (P39800 2-297): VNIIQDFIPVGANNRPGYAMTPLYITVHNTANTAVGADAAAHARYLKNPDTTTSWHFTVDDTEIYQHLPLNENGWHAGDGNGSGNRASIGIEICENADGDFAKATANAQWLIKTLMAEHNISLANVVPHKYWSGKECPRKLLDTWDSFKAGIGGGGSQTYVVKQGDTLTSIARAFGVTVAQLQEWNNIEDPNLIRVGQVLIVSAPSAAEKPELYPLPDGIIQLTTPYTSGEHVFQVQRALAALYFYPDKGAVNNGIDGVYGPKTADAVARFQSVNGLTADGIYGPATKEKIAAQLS

dTm (XlyB): 2 °C | dTm (XlyA): 2 °C
SMILES: CC(=O)N[C@H]1[C@H](O[C@H]2[C@H](O)[C@@H](NC(C)=O)C(O)O[C@@H]2CO)O[C@H](CO)[C@@H](O[C@@H]2O[C@H](CO)[C@@H](O)[C@H](O)[C@H]2NC(C)=O)[C@@H]1O (some centres unmarked) [triacetylchitotriose]
